Experimental data: article PMC7082753, “Hazards of Using Masking Protocols When Performing Ligand Binding Assays: Lessons From the Sigma-1 and Sigma-2 Receptors” (Frontiers in Pharmacology, 2020)
Read-outs that look alike come from different tables or passages of the source.

Columns and labels:
[1] = test system: residual binding sites for [³H] DTG in TMEM97 knock-out HeLa cells; conditions: cited from earlier work
[2] = test system: sigma receptors; test: Saturation binding of pan-sigma ligand [³H] DTG to MDA-MB-468 cell membranes; design: species or system human; conditions: MDA-MB-468 membranes; n = 3
Protocol: (§1) Assays (total volume 100 μl) were performed at room temperature for 4 h with 1–300 nM [^3H] […] Assays were terminated by addition of ice-cold TBS and filtration through glass fibre filters (GF/C, Sigma-Aldrich, Poole, UK) using a cell harvester. Tubes and filter discs were washed with ice-cold TBS (2 x 3 ml) and the filter discs dried under vacuum. Scintillation counting was carried out in ProSafe FC+ cocktail after overnight incubation.

[3] = target: sigma-1 receptor; design: method as in Largent et al., 1987; conditions: ref Largent et al., 1987, cited from earlier work
[4] = test system: sigma-2 receptor; test: Literature [³H] DTG and [³H] PPP binding in PC12 cells and affinity estimated from it; design: species or system rat; conditions: for K30: 30 % displacement; for Ki: data of ref Hellewell and Bowen, 1990
Excerpt: Calculations for saturation binding are based on non-linear analysis of idealised data.

[5] = target: sigma-1 receptor; test: Literature dextrallorphan competition against [³H] PPP (Largent et al.); type: binding; conditions: data of ref Largent et al., 1987
[6] = target: sigma-1 receptor; conditions: ref Hellewell and Bowen, 1990; read-out: Ki (sigma-1 affinity); cited from earlier work
[7] = test system: sigma-2 receptor; conditions: PC12 cells, ref Hellewell and Bowen, 1990, cited from earlier work
[8] = target: sigma-1 receptor; design: method as in Hou et al., 2006; Zeng et al., 2019; conditions: ref Hou et al., 2006; Zeng et al., 2019; cited from earlier work
[9] = target: sigma-2 receptor; design: method as in Hou et al., 2006; Zeng et al., 2019; conditions: ref Hou et al., 2006; Zeng et al., 2019; cited from earlier work
[10] = test system: sigma-1 receptor; test: Saturation binding of [³H] (+) pentazocine to MCF7 cell membranes; design: species or system human
Protocol: MDA-MB-468 cells were maintained in DMEM, high glucose (41965-062) supplemented with 10% foetal calf serum. MCF7 cells were maintained in MEM (M2279) supplemented with 2 mM L-glutamine and 10% foetal calf serum. Cells were cultured at 37°C in a humidified incubator with 5% CO2. […] The supernatant was discarded and the pellet suspended in SBB.
Assays (total volume 100 µl) were performed using 0–300 nM [^3H] […] Non-specific binding was determined using 1 mM reduced haloperidol ([Schetz et al., 2007]). […] Assays were terminated by addition of ice-cold tris-buffered saline (TBS: 154 mM NaCl, 10 mM Tris, pH 7.4) and filtration through glass fibre filters (GF/B, Sigma-Aldrich, Poole, UK) using a cell harvester. Tubes and filter discs were washed (2 x 3 ml) with ice-cold TBS, and the filter discs dried under vacuum. Scintillation counting was carried out in ProSafe FC+ cocktail (Meridian Biotechnologies Ltd, Tadworth, UK) after overnight incubation.

[11] = target: T1, sigma-2 receptor (Homo sapiens, UniProt Q5BJF2); test: [³H] DTG saturation binding to MCF7 membranes in absence or presence of (+) pentazocine; design: from sigma-2 receptors in membranes prepared from MCF7 cells; endogenous in cells; host or cells: MCF7 (ATCC HTB-22) cell membranes
T1 sequence (Q5BJF2 whole entry): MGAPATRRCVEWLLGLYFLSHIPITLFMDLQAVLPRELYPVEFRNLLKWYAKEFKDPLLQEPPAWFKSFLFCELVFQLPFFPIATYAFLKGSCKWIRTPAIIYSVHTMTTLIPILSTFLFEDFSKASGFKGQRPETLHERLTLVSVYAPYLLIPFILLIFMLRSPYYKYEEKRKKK
Protocol: as §1

[12] = target: T1, sigma-2 receptor; test: Two-site competition of (+) pentazocine with [³H] DTG in MDA-MB-468 membranes, low-affinity site; type: binding; design: endogenous in cells; conditions: two-site analysis
Protocol: (§2) Competition binding assays (total volume 100 μl) were performed using a final assay concentration of 50 nM, 100 nM, or 1 µM [^3H] […] Alternatively, 10–30 nM [³H] […] The assay was then allowed to equilibrate at room temperature for 4 h. […] Tubes and filter discs were washed with ice-cold TBS (2 x 3 ml), and the filter discs dried under vacuum.

[13] = test system: sigma sites; conditions: spinal cord; competition experiments; ref Kovacs and Larson, 1995; cited from earlier work
[14] = target: T2, sigma-1 receptor (Homo sapiens, UniProt Q99720); type: binding; conditions: MDA-MB-468; two-site analysis
T2 construct: sigma-1 receptors in membranes prepared from MDA-MB-468 cells; endogenous in cells; host or cells: MDA-MB-468 (ATCC HTB-132) cell membranes
T2 sequence (Q99720 whole entry): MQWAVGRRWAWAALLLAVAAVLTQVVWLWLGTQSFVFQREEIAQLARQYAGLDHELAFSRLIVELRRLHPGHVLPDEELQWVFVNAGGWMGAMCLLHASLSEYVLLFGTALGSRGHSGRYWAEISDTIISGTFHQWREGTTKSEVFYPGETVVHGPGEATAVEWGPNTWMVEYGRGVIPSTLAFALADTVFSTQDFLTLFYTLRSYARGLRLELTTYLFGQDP
Protocol: as §2

[15] = test system: sigma-1 receptor; conditions: not affected by GTP or suramin; ref Brimson et al., 2011; cited from earlier work

## Cc1ccccc1NC(=N)Nc1ccccc1C [DTG, 1,3-di-O-tolylguanidine]
[1]; presence of 1 μM (+) pentazocine, ref Riad et al., 2018, Zeng et al., 2019, read-out: apparent Kd
  Kd: 0.3 to 0.4 µM
[2]
  pKd: 7.88 ± 0.01

## C=CCN1CC[C@@]23CCCC[C@@H]2[C@@H]1Cc1ccc(O)cc13 [dextrallorphan]
[3]; against 1-2 nM [³H] PPP
  IC50: 0.163 µM
[4]; calculated using DTG (5 nM, Kd […])
  K30: 18.76 µM
[4]; calculated using PPP (3 nM, Kd 86.3 nM)
  K30: 6.55 µM
[4]; estimated from DTG data in PC12 cells
  Ki: 44.7 µM
[4]; estimated from PPP data in PC12 cells
  Ki: 15 µM
[5]; Cheng-Prusoff correction of IC50 163 nM, read-out: Ki
  Ki: 0.153 to 0.158 µM
[5]; lowest calculated affinity, from Ki 153-158 nM, read-out: sigma-1 affinity used for modelling
  Ki: 0.155 µM
[6]
  Ki: 0.0161 µM
[7]; 5 μM dextrallorphan
  displacement of [³H] DTG or [³H] PPP: less than 30%

## CCCN1CCCC(c2cccc(O)c2)C1 (single isomer, unassigned; (+)) [PPP, (+)-3-(3-hydroxyphenyl)-N-(1-propyl)piperidine]
[3]; radioligand [³H] PPP
  Kd: 0.03 µM
[7]; PPP
  Kd: 0.0863 µM

## COc1cc2c(cc1OC)CN(CCCCNC(=O)c1cc(I)cc(OC)c1OC)CC2 [RHM-4]
[1]; ref Zeng et al., 2019
  detection of residual binding when used as radioligand: unable to detect this residual binding
[8]
  Ki: 12.9 µM
[9]
  Ki: 0.0082 µM

## CC(C)=CCN1CC[C@]2(C)c3cc(O)ccc3C[C@H]1[C@H]2C [(+) pentazocine, (1S,9S,13S)-1,13-dimethyl-10-(3-methylbut-2-en-1-yl)-10-azatricyclotrideca-2,4,6-trien-4-ol]
[10]
  specific binding: no specific binding
[11]; 100 nM (+) pentazocine
  effect on Bmax of [³H] DTG: did not affect
[11]; 1 µM (+) pentazocine
  effect on calculated Bmax of [³H] DTG: did not affect
[12]
  % of sites with low affinity: 64%
[7]
  displacement of DTG and PPP binding: low-affinity
[13]
  [³H] DTG displaced with high affinity: 30%
[14]
  % of sites with high affinity: 36%
[15]
  Hill slope: unity
